Test results: patent US20230248626A1, “Compositions Comprising (Bio)-Alkanediols” (Symrise AG, priority 0001, published 2023)
Values after ≈ are worked out from the molar mass of the structure shown.

Assays:
Aspergillus brasiliensis = test: MIC and Kull synergy index of 1,2-/2,3-alkanediol mixtures; assay type: cell-based; conditions: single 2,3-alkanediol, read-out: MIC Component B
Propionibacterium acnes = test: MIC test (growth inhibition, 96 well plates, OD); assay type: cell-based; conditions: Cutibacterium acnes; read-out: Minimum Inhibitory Concentration (MIC)
Corynebacterium jeikeium = test: MIC test (growth inhibition, 96 well plates, OD); assay type: cell-based; conditions: read-out: Minimum Inhibitory Concentration (MIC)
Staphylococcus hominis = test: MIC test (growth inhibition, 96 well plates, OD); assay type: cell-based; conditions: read-out: Minimum Inhibitory Concentration (MIC)
Escherichia coli = test: MIC test (growth inhibition, 96 well plates, OD); assay type: cell-based; conditions: read-out: Minimum Inhibitory Concentration (MIC)
Staphylococcus aureus = test: MIC test (growth inhibition, 96 well plates, OD); assay type: cell-based; conditions: read-out: Minimum Inhibitory Concentration (MIC)
Candida albicans = test: MIC test (growth inhibition, 96 well plates, OD); assay type: cell-based; conditions: read-out: Minimum Inhibitory Concentration (MIC)
[1] = tested on: Pseudomonas aeruginosa (PA); test: Preservation efficacy test (PET), European Pharmacopoeia 5.1.3; assay type: cell-based
Summary of the method: (§1)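 Preparations challenged with prescribed inoculums per European Pharmacopoeia 5.1.3, counting microorganisms after the prescribed time. Adequate preservation means a significant fall or no increase in counts.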

[2] = tested on: Aspergillus brasiliensis (AB); test: as above; assay type: cell-based
Summary of the method: as §1

[3] = Sensory evaluation on the backside of the hand (spreading, fatty/greasy skin feel, absorption), untrained panellists; conditions: for Absorption/remaining residue with alkanediol: scale 1 to 5
Experimental: For evaluating the sensory behaviour, liquid lipophilic components specified in the following table were blended with 1,2-heptanediol or 2,3-heptanediol or a mixture of 1,2-heptanediol and 2,3-heptanediol or 1,2-octanediol or 2,3-octanediol or a mixture of 1,2-octanediol and 2,3-octanediol (formulation) in a ratio of 85:15 and assessed by untrained panellists in comparison to the liquid lipophilic component without addition of the specified alkanediols (placebo).
The test procedure was carried as follows: For evaluating the sensory behaviour of 1,2-alkanediols and/or 2,3-alkanediols in combination with different liquid lipophilic components, oil components specified in the following table were blended with a 1,2-alkanediol or a 2,3-alkanediol or a mixture including a 1,2-alkanediol and a 2,3-alkanediol in a ratio as specified in Table 53 and assessed by untrained panellists in comparison to the liquid lipophilic component without addition of the 1,2-alkanediol or 2,3-alkanediol or the mixture including a 1,2-alkanediol and 2,3-alkanediol (placebo).
Test Procedure: • Hands were pre-washed with liquid soap by following a defined procedure; 30 μl of corresponding sample was applied on the backside of each hand (randomized); • After 30 s the spreading behaviour of the respective formulation on skin was evaluated versus the respective oil component without 1,2-heptanediol on a scale from 1 to 5 (1=low spreading; 5=high spreading); • The samples were distributed with the fingertips of middle and forefinger with 2×5 cycles; • After 2 minutes, the fatty/greasy skin feel was evaluated on a scale from 1 to 5 (1=low fatty/greasy skin feel; 5=high fatty/greasy skin feel); • Furthermore the applicants were asked to assess the absorption, i.e. the impression of amount of remaining residue on the skin on a scale from 1 to 5 (1=low absorption; 5=high absorption).

[4] = blend with Argan Oil vs without
[5] = blend with Avocado Oil vs without
[6] = blend with Cacao butter vs without
[7] = blend with Castor Oil vs without
[8] = blend with Coconut Oil vs without
[9] = blend with Grapeseed Oil vs without
[10] = blend with Helianthus Annuus (Sunflower) Seed Oil vs without
[11] = blend with Helianthus Annuus (Sunflower) Seed Oil
[12] = blend with Octocrylene (Neo Heliopan 303), vs without
[13] = blend with Octocrylene (Neo Heliopan 303)
[14] = blend with Olive Oil vs without

## CCCCC(O)C(C)O (stereo not shown) [2,3-heptanediol]
Aspergillus brasiliensis
  MIC: 7500 µg/mL
Propionibacterium acnes
  MIC: > 5000 µg/mL
Corynebacterium jeikeium
  MIC: > 5000 µg/mL
Staphylococcus hominis
  MIC: > 5000 µg/mL
Escherichia coli
  MIC: > 5000 µg/mL
Staphylococcus aureus
  MIC: 20000 µg/mL (≈ 151 mM)
Candida albicans
  MIC: > 5000 µg/mL
[1]; 0.1% in shampoo
  number of microorganisms after 2 days: 230,000
  number of microorganisms after 7 days: 730,000
  number of microorganisms after 14 days: 3,500,000
  number of microorganisms after 28 days: 7,000,000
[1]; 0.2% in o/w emulsion
  number of microorganisms after 2 days: 1
  number of microorganisms after 7 days: 1
  number of microorganisms after 14 days: 1
  number of microorganisms after 28 days: 1
[1]; 0.4% in o/w emulsion
  number of microorganisms after 2 days: 1
  number of microorganisms after 7 days: 1
  number of microorganisms after 14 days: 1
  number of microorganisms after 28 days: 1
[1]; 0.4% in shampoo
  number of microorganisms after 2 days: 2,900
  number of microorganisms after 7 days: 1
  number of microorganisms after 14 days: 1
  number of microorganisms after 28 days: 1
[2]; 0.1% in shampoo
  number of microorganisms after 2 days: 1,600,000
  number of microorganisms after 7 days: 970,000
  number of microorganisms after 14 days: 110,000
  number of microorganisms after 28 days: 120,000
[2]; 0.2% in o/w emulsion
  number of microorganisms after 2 days: 1,600,000
  number of microorganisms after 7 days: 1,600,000
  number of microorganisms after 14 days: 3,000,000
  number of microorganisms after 28 days: 2,000,000
[2]; 0.4% in o/w emulsion
  number of microorganisms after 2 days: 790,000
  number of microorganisms after 7 days: 930,000
  number of microorganisms after 14 days: 500,000
  number of microorganisms after 28 days: 390,000
[2]; 0.4% in shampoo
  number of microorganisms after 2 days: 2,200,000
  number of microorganisms after 7 days: 350,000
  number of microorganisms after 14 days: 130,000
  number of microorganisms after 28 days: 140,000
[3]; [4]
  Absorption/remaining residue Delta: 1.4
[3]; blend with Argan Oil
  Absorption/remaining residue with alkanediol: 2.4
[3]; [5]
  Absorption/remaining residue Delta: 1.4
[3]; blend with Avocado Oil
  Absorption/remaining residue with alkanediol: 2.4
[3]; [6]
  Absorption/remaining residue Delta: 0.4
[3]; blend with Cacao butter
  Absorption/remaining residue with alkanediol: 3.2
[3]; blend with Caprylic Capric Triglyceride (neutral oil), rows r50-r56, vs without
  Absorption/remaining residue Delta: 0.3
[3]; blend with Caprylic Capric Triglyceride (neutral oil), rows r50-r56
  Absorption/remaining residue with alkanediol: 3
[3]; [7]
  Absorption/remaining residue Delta: 0.6
[3]; blend with Castor Oil
  Absorption/remaining residue with alkanediol: 3.8
[3]; blend with Cetearyl Nonanoate, rows r199-r201, vs without
  Absorption/remaining residue Delta: 1.0
[3]; blend with Cetearyl Nonanoate, rows r199-r201
  Absorption/remaining residue with alkanediol: 3.8
[3]; [8]
  Absorption/remaining residue Delta: 1
[3]; blend with Coconut Oil
  Absorption/remaining residue with alkanediol: 2.4
[3]; [9]
  Absorption/remaining residue Delta: 0.8
[3]; blend with Grapeseed Oil
  Absorption/remaining residue with alkanediol: 2.2
[3]; [10]
  Absorption/remaining residue Delta: 1
[3]; [11]
  Absorption/remaining residue with alkanediol: 2.6
[3]; [12]
  Absorption/remaining residue Delta: 0.5
[3]; [13]
  Absorption/remaining residue with alkanediol: 3.5
[3]; [14]
  Absorption/remaining residue Delta: 2
[3]; blend with Olive Oil
  Absorption/remaining residue with alkanediol: 2

## CCCCCC(O)C(C)O (stereo not shown) [2,3-octanediol]
Aspergillus brasiliensis
  MIC: 2500 µg/mL
Propionibacterium acnes
  MIC: > 5000 µg/mL
Corynebacterium jeikeium
  MIC: 5000 µg/mL (≈ 34.2 mM)
Staphylococcus hominis
  MIC: > 5000 µg/mL
Escherichia coli
  MIC: 2500 µg/mL (≈ 17.1 mM)
Staphylococcus aureus
  MIC: 5000 µg/mL (≈ 34.2 mM)
Candida albicans
  MIC: 5000 µg/mL (≈ 34.2 mM)
[1]; 0.1% in shampoo
  number of microorganisms after 2 days: 280,000
  number of microorganisms after 7 days: 3,700,000
  number of microorganisms after 14 days: 13,000,000
  number of microorganisms after 28 days: 8,100,000
[1]; 0.1% in wet wipes solution
  number of microorganisms after 2 days: 1,300,000
  number of microorganisms after 7 days: 630,000
  number of microorganisms after 14 days: 310,000
  number of microorganisms after 28 days: 27,000
[1]; 0.2% in o/w emulsion
  number of microorganisms after 2 days: 1
  number of microorganisms after 7 days: 1
  number of microorganisms after 14 days: 1
  number of microorganisms after 28 days: 1
[1]; 0.4% in shampoo
  number of microorganisms after 2 days: 21,000
  number of microorganisms after 7 days: 1
  number of microorganisms after 14 days: 1
  number of microorganisms after 28 days: 1
[2]; 0.1% in shampoo
  number of microorganisms after 2 days: 2,300,000
  number of microorganisms after 7 days: 1,300,000
  number of microorganisms after 14 days: 250,000
  number of microorganisms after 28 days: 250,000
[2]; 0.1% in wet wipes solution
  number of microorganisms after 2 days: 12,000,000
  number of microorganisms after 7 days: 8,500,000
  number of microorganisms after 14 days: 9,300,000
  number of microorganisms after 28 days: 12,000,000
[2]; 0.2% in o/w emulsion
  number of microorganisms after 2 days: 1,700,000
  number of microorganisms after 7 days: 2,000,000
  number of microorganisms after 14 days: 2,100,000
  number of microorganisms after 28 days: 2,000,000
[2]; 0.4% in shampoo
  number of microorganisms after 2 days: 1,100,000
  number of microorganisms after 7 days: 1,100,000
  number of microorganisms after 14 days: 2,100,000
  number of microorganisms after 28 days: 410,000
[3]; [4]
  Absorption/remaining residue Delta: 1.6
[3]; blend with Argan Oil
  Absorption/remaining residue with alkanediol: 2.2
[3]; [5]
  Absorption/remaining residue Delta: 1.4
[3]; blend with Avocado Oil
  Absorption/remaining residue with alkanediol: 2.4
[3]; [6]
  Absorption/remaining residue Delta: 0.8
[3]; blend with Cacao butter
  Absorption/remaining residue with alkanediol: 2.8
[3]; [7]
  Absorption/remaining residue Delta: 1.4
[3]; blend with Castor Oil
  Absorption/remaining residue with alkanediol: 3
[3]; [8]
  Absorption/remaining residue Delta: 1.2
[3]; blend with Coconut Oil
  Absorption/remaining residue with alkanediol: 2.6
[3]; [9]
  Absorption/remaining residue Delta: 0.2
[3]; blend with Grapeseed Oil
  Absorption/remaining residue with alkanediol: 2.4
[3]; [10]
  Absorption/remaining residue Delta: 0.4
[3]; [11]
  Absorption/remaining residue with alkanediol: 3.4
[3]; [12]
  Absorption/remaining residue Delta: 1.5
[3]; [13]
  Absorption/remaining residue with alkanediol: 2.5
[3]; [14]
  Absorption/remaining residue Delta: 1.4
[3]; blend with Olive Oil
  Absorption/remaining residue with alkanediol: 2.6
